We go through one compound from patent US20070134326A1, “Composition for releasing a weak base for an extended period of time” (priority 2003, published 2007).

Data set [1] can be described thus: pH dependent solubility. The class given is physicochemical. As to conditions: around pH 2 vs around pH 7.
The subject of data set [2] is glucose utilization. The following applies: PK/PD model estimate, diabetic patients; FDA Briefing Document, Avandia IND 43,468; cited from earlier work.

Turning to `CN(CCOc1ccc(CC2SC(=O)NC2=O)cc1)c1ccccn1` (centres unmarked) [Compound A, 5-[4-[2-(N-methyl-N-(2pyridyl)amino)ethoxy]benzyl]thiazolidine-2,4-dione], in data set [1], the pH dependent solubility entry is “more soluble in the acidic conditions of the stomach (around pH 2) than in the near neutral conditions of the lower intestine (around pH 7)”. For the same compound, in data set [2], the “concentration associated with half-maximal stimulation (SC50) of glucose utilization” value is roughly 52 ng/mL.
